# Reference: patent US9067897B2, “2,4-Diaminoquinazolines for spinal muscular atrophy” (Families of Spinal Muscular Atrophy, priority 2004, dated 2015)
# Counter-ions that a name gives are not always drawn.
# System: SMN2 promoter
# Test: SMN2 promoter assay (β-lactamase reporter) in NSC-34 cells
# Assay type: cell-based, mouse
# Conditions: Mus musculus, SMN2 promoter driving β-lactamase, 12 point dose curve, average of 3-6 dose curve experiments
# Text: All compounds were screened using an in vitro based SMN2 promoter assay. We used NSC-34 cells, a hybrid cell line between mouse spinal cord cells and mouse neuroblastoma cells. NSC-34 cells harbor an expression plasmid containing a 3.4 kb promoter fragment of the SMN2 gene driving β-lactamase expression.
# […] […] CCF2-AM diffuses across the plasma membrane and is converted into an active β-lactamase substrate by cytoplasmic esterase. […] The fold induction is proportional to the extent of β-lactamase produced and in turn proportional to SMN2 promoter activation for a given compound relative to vehicle (DMSO) control. […] These values are used to rank activities of the compounds and derive structure activity relationship.
row,Compound,EC50 [µM]
1,"Nc1nc(N)c2c(OCC3CCNCC3)cccc2n1 [Example 116, 5-(Piperidin-4-ylmethoxy)-quinazoline-2,4-diamine hydrochloride]",< 1
2,"CN1CCCCC1COc1cccc2nc(N)nc(N)c12 (centres unmarked) [Example 117, 5-(1-Methyl-piperidin-2-ylmethoxy)-quinazoline-2,4-diamine]",< 1
3,"Nc1nc(N)c2c(O[C@@H]3C[C@H]4CC[C@@H]3C4)cccc2n1 [Example 118, 5-((1R,2R,4S)-Bicyclo[2.2.1]hept-2-yloxy)quinazoline-2,4-diamine]",< 1
4,"CC(Oc1cccc2nc(N)nc(N)c12)C1CCCC1 (centres unmarked) [Example 120, 5-(1-Cyclopentyl-ethoxy)-quinazoline-2,4-diamine]",< 1
5,"CC(C)(C)OC(=O)N1CCC(COc2cccc3nc(N)nc(N)c23)CC1 [Example 121, 4-(2,4-Diamino-quinazolin-5-yloxymethyl)-piperidin-1-carboxylic acid tert-butyl ester]",< 1
6,"Nc1nc(N)c2c(OCC3CC4C=CC3C4)cccc2n1 (centres unmarked) [Example 122, 5-(Bicyclo[2.2.1]hept-5-en-2-ylmethoxy)-quinazoline-2,4-diamine]",< 1
7,"Nc1nc(N)c2c(OCC3CCN(C(=O)c4ccc(Cl)cc4)CC3)cccc2n1 [Example 123, (4-Chlorophenyl)-[4-(2,4-diamino-quinazolin-5-yloxymethyl)-piperidin-1-yl]-methanone]",< 1
8,"Nc1nc(N)c2c(OC3CC4CCC3C4)cccc2n1 (centres unmarked) [Example 124, 5-(Bicyclo[2.2.1]hept-2-yloxy)-quinazoline-2,4-diamine]",< 1
9,"CCCC(Oc1cccc2nc(N)nc(N)c12)C1CCCCC1 (centres unmarked) [Example 125, 5-(1-Cyclohexyl-butoxy)-quinazoline-2,4-diamine]",< 1
10,"CC(Oc1cccc2nc(N)nc(N)c12)C1CCCCC1 (centres unmarked) [Example 126, 5-(1-Cyclohexyl-ethoxy)-quinazoline-2,4-diamine]",< 1
11,"CC1(COc2cccc3nc(N)nc(N)c23)COC1 [Example 127, 5-(3-Methyl-oxetan-3-ylmethoxy)-quinazoline-2,4-diamine]",< 1
12,"CCC(Oc1cccc2nc(N)nc(N)c12)C1CCCCC1 (centres unmarked) [Example 129, 5-(1-Cyclohexylpropoxy)-quinazoline-2,4-diamine]",< 1
13,"Nc1nc(N)c2c(OCC3CC4CC3C(O)C4O)cccc2n1 (centres unmarked) [Example 131, 5-(2,4-Diamino-quinazolin-5-yloxymethyl)-bicyclo[2.2.1]heptane-2,3-diol]",< 1
14,"Nc1nc(N)c2c(OCC3CCN(C(=O)c4cccc(Cl)c4)CC3)cccc2n1 [Example 134, (3-Chlorophenyl)-[4-(2,4-diamino-quinazolin-5-yloxymethyl)-piperidin-1-yl]-methanone]",< 1
15,"Nc1nc(N)c2c(OC3(c4cccc(Cl)c4)CCCCC3)cccc2n1 [Example 145, 5-[1-(3-Chlorophenyl)cyclohexyloxy]quinazoline-2,4-diamine]",1 to 5
16,"Nc1nc(N)c2c(COc3ccc(F)cc3F)cccc2n1 [Example 147, 5-(2,4-Difluorophenoxymethyl)quinazoline-2,4-diamine]",< 1
17,"Nc1nc(N)c2c(OCC3CC4CCC3C4)cccc2n1 (centres unmarked) [Example 151, 5-(Bicyclo[2.2.1]hept-2-ylmethoxy)quinazoline-2,4-diamine]",< 1

# Next, values leading:
row,EC50 [µM],Compound
1,< 1,"Nc1nc(N)c2c(OCc3cccc(C(F)(F)F)c3)cccc2n1 [Example 98, 5-(3-Trifluoromethylbenzyloxy)-quinazoline-2,4-diamine]"
2,< 1,"Nc1nc(N)c2c(OCc3ccccc3C(F)(F)F)cccc2n1 [Example 99, 5-(2-Trifluoromethylbenzyloxy)-quinazoline-2,4-diamine]"
3,< 1,"Nc1nc(N)c2c(OCc3ccc(C(F)(F)F)cc3)cccc2n1 [Example 100, 5-(4-Trifluoromethylbenzyloxy)-quinazoline-2,4-diamine]"
4,< 1,"CC(Oc1cccc2nc(N)nc(N)c12)c1ccccc1F (centres unmarked) [Example 103, 5-[1-(2-Fluorophenyl)-ethoxy]-quinazoline-2,4-diamine]"
5,< 1,"CC(Oc1cccc2nc(N)nc(N)c12)c1ccccc1Cl (centres unmarked) [Example 104, 5-[1-(2-Chlorophenyl)ethoxy]-quinazoline-2,4-diamine]"
6,< 1,"CC(Oc1cccc2nc(N)nc(N)c12)c1ccc(C(F)(F)F)cc1 (centres unmarked) [Example 105, 5-[1-(4-Trifluoromethylphenyl)ethoxy]quinazoline-2,4-diamine]"
7,< 1,"Nc1nc(N)c2c(OCc3cc(Cl)cc(Cl)c3)cccc2n1 [Example 106, 5-(3,5-Dichlorobenzyloxy)quinazoline-2,4-diamine]"
8,< 1,"CC(Oc1cccc2nc(N)nc(N)c12)c1cc(F)cc(F)c1 (centres unmarked) [Example 107, 5-[1-(3,5-Difluorophenyl)ethoxy]quinazoline-2,4-diamine]"
9,1 to 5,"C[C@H](Oc1cccc2nc(N)nc(N)c12)c1cccc2ccccc12 [Example 108, 5-((S)-1-Naphthalen-1-yl-ethoxy)-quinazoline-2,4-diamine]"
10,< 1,"C[C@H](Oc1cccc2nc(N)nc(N)c12)c1ccc2ccccc2c1 [Example 109, 5-((S)-1-Naphthalen-2-yl-ethoxy)-quinazoline-2,4-diamine]"
11,1 to 5,"C[C@@H](Oc1cccc2nc(N)nc(N)c12)c1cccc2ccccc12 [Example 110, 5-((R)-1-Naphthalen-1-yl-ethoxy)-quinazoline-2,4-diamine]"
12,1 to 5,"CC(Oc1cccc2nc(N)nc(N)c12)c1cccc2ccccc12 (centres unmarked) [Example 111, 5-(1-Naphthalen-1-yl-ethoxy)-quinazoline-2,4-diamine]"
13,< 1,"Nc1nc(N)c2c(OCc3cnc4ccccc4c3)cccc2n1 [Example 112, 5-(Quinolin-3-ylmethoxy)-quinazoline-2,4-diamine]"
14,< 1,"Nc1nc(N)c2c(OCc3cccc4cccnc34)cccc2n1 [Example 113, 5-(Quinolin-8-ylmethoxy)-quinazoline-2,4-diamine]"
15,< 1,"COCC(Oc1cccc2nc(N)nc(N)c12)c1ccc(Cl)cc1 (centres unmarked) [Example 114, 5-[1-(4-Chlorophenyl)-2-methoxyethoxy]-quinazoline-2,4-diamine]"
16,< 1,"Nc1nc(N)c2c(OC(C(=O)O)c3ccc(Cl)cc3)cccc2n1 (centres unmarked) [Example 115, (4-Chlorophenyl)-(2,4-diamino-quinazolin-5-yloxy)-acetic acid]"
17,< 1,"Nc1nc(N)c2c(OC3COc4ccc(Cl)cc43)cccc2n1 (centres unmarked) [Example 128, 5-(5-Chloro-2,3-dihydro-benzofuran-3-yloxy)-quinazoline-2,4-diamine]"
18,< 1,"Nc1nc(N)c2c(OCC3CCN(C(=O)c4ccccc4Cl)CC3)cccc2n1 [Example 133, (2-Chlorophenyl)-[4-(2,4-diamino-quinazolin-5-yloxymethyl)-piperidin-1-yl]-methanone]"
19,< 1,"Nc1nc(N)c2c(COc3ccccc3Cl)cccc2n1 [Example 138, 5-(2-Chlorophenoxymethyl)quinazoline-2,4-diamine]"
20,< 1,"Cc1cc(Cl)ccc1OCc1cccc2nc(N)nc(N)c12 [Example 139, 5-(4-Chloro-2-methylphenoxymethyl)quinazoline-2,4-diamine]"
21,1 to 5,"CC(C)(Oc1cccc2nc(N)nc(N)c12)c1cccc(Cl)c1 [Example 140, 5-[1-(3-Chlorophenyl)-1-methylethoxy]quinazoline-2,4-diamine]"
22,< 1,"Cc1cc(OCc2cccc3nc(N)nc(N)c23)ccc1Cl [Example 141, 5-(4-Chloro-3-methylphenoxymethyl)quinazoline-2,4-diamine]"
23,< 1,"COc1ccccc1COc1cccc2nc(N)nc(N)c12 [Example 142, 5-(2-Methoxybenzyloxy)quinazoline-2,4-diamine]"
24,< 1,"COc1cccc(COc2cccc3nc(N)nc(N)c23)c1 [Example 143, 5-(3-Methoxybenzyloxy)quinazoline-2,4-diamine]"
25,< 1,"COc1ccc(COc2cccc3nc(N)nc(N)c23)cc1 [Example 144, 5-(4-Methoxybenzyloxy)quinazoline-2,4-diamine]"
26,< 1,"Nc1nc(N)c2c(OC3(c4cccc(Cl)c4)CC3)cccc2n1 [Example 146, 5-[1-(3-Chlorophenyl)cyclopropoxy]quinazoline-2,4-diamine]"
27,1 to 5,"COc1ccc(OCc2cccc3nc(N)nc(N)c23)cc1 [Example 148, 5-(4-Methoxyphenoxymethyl)quinazoline-2,4-diamine]"
28,< 1,"Nc1nc(N)c2c(O[C@H]3CCc4ccc(Cl)cc43)cccc2n1 [Example 149, 5-((S)-6-Chloroindan-1-yloxy)quinazoline-2,4-diamine]"
29,< 1,"Nc1nc(N)c2c(O[C@@H]3CCc4ccc(Cl)cc43)cccc2n1 [Example 150, 5-((R)-6-Chloroindan-1-yloxy)quinazoline-2,4-diamine]"

# Same assay, conditions: SMN2 promoter driving β-lactamase, 12 point dose curve, average of 3-6 dose curve experiments
row,EC50 [µM],Compound
1,< 1,"Nc1nc(N)c2c(OC3C4CC5CC(C4)CC3C5)cccc2n1 (centres unmarked) [Example 119, 5-(Adamanta-2-yloxy)quiazoline-2,4-diamine]"
2,< 1,"Nc1nc(N)c2c(OCC3CCN(C(=O)c4cccc(I)c4)CC3)cccc2n1 [Example 135, [4-(2,4-Diaminoquinzolin-5-yloxymethyl)piperidin-1-yl]-(3-iodophenyl)methanone]"
3,< 1,"Nc1nc(N)c2c(OCC3CCN(C(=O)c4ccc(I)cc4)CC3)cccc2n1 [Example 136, [4-(2,4-Diaminoquinzolin-5-yloxymethyl)piperidin-1-yl]-(4-iodophenyl)methanone]"
4,< 1,"Nc1nc(N)c2c(OCC3CCN(C(=O)c4ccccc4I)CC3)cccc2n1 [Example 137, [4-(2,4-Diaminoquinzolin-5-yloxymethyl)piperidin-1-yl]-(2-iodophenyl)methanone]"
